# Experimental data as given in ChEMBL document CHEMBL1122904, “Bioactive conformation of 1-arylpiperazines at central serotonin receptors” (J Med Chem, 1985).
# pKi: −log10 of the molar value.
# Biological target: 5-hydroxytryptamine receptor 1B (Rattus norvegicus, UniProt P28564)
# Assay: Intrinsic affinity towards serotonin receptor from rat frontal cortex by displacement of [3H]5-HT
# Type: tissue-based
# 5-hydroxytryptamine receptor 1B, sequence (P28564 whole entry): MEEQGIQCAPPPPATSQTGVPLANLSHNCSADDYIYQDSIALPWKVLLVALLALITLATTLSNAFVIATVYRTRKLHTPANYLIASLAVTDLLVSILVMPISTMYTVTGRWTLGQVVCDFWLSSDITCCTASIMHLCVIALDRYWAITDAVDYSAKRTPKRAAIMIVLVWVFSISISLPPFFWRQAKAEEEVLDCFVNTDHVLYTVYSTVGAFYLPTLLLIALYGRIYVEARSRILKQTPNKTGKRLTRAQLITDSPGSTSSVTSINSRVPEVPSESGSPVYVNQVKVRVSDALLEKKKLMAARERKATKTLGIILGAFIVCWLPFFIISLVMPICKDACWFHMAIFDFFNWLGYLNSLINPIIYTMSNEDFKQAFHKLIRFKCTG
row,Compound,pKi
1,FC(F)(F)c1cccc(N2CCNCC2)c1,6.94
2,FC(F)(F)c1ccc2c(c1)N1CCNCC1CC2 (stereo not drawn),7.17
3,Clc1cncc(N2CCNCC2)n1 [MK-212],5.44
